Values of other authors in patent US20240401031A1, “Platform Using iPSC-Derived Cardiomyocytes Carrying Gene Variants as Models of Cardiac Disease and Drug-Response” (SRI INTERNATIONAL, priority 2021, published 2024).

Details: source CredibleMeds

Row | Structure (SMILES) | Risk (Torsade de Pointes)
1 | COc1c(N2CCNC(C)C2)c(F)cc2c(=O)c(C(=O)O)cn(C3CC3)c12 (stereo not drawn) [Gatifloxacin] | (KR)
2 | CCc1nc(C(N)=O)c(Nc2ccc(N3CCC(N4CCN(C)CC4)CC3)c(OC)c2)nc1NC1CCOCC1 [Gilteritinib] | (PR)
3 | CN1CC[C@@H](NC(=O)Nc2ccc(C#N)cc2)C[C@@H]1c1nc2ccccc2[nH]1 [Glasdegib] | (PR)
4 | CN1C2CCCC1CC(NC(=O)c1nn(C)c3ccccc13)C2 (stereo not drawn) [Granisetron] | (PR)
5 | NS(=O)(=O)c1cc2c(cc1Cl)NCNS2(=O)=O [Hydrochlorothiazide] | (CR)
6 | CC[C@H]1CN2CC[C@H]1C[C@@H]2[C@@H](O)c1ccnc2ccc(OC)cc12 [Hydroquinidine] | (KR)
7 | CCN(CCO)CCCC(C)Nc1ccnc2cc(Cl)ccc12 (stereo not drawn) [Hydroxychloroquine] | (KR)
8 | OCCOCCN1CCN(C(c2ccccc2)c2ccc(Cl)cc2)CC1 (stereo not drawn) [Hydroxyzine] | (CR)
9 | CCCCCCCN(CC)CCCC(O)c1ccc(NS(C)(=O)=O)cc1 (stereo not drawn) [Ibutilide] | (KR)
10 | COc1cc(C(C)=O)ccc1OCCCN1CCC(c2noc3cc(F)ccc23)CC1 [Iloperidone] | (PR)
11 | CN(C)CCCN1c2ccccc2CCc2ccccc21 [Imipramine] | (PR)
12 | CCc1cc2c(cc1CC)CC(NC[C@H](O)c1ccc(O)c3[nH]c(=O)ccc13)C2 [Indacaterol] | (SR)
13 | CC1Cc2ccccc2N1NC(=O)c1ccc(Cl)c(S(N)(=O)=O)c1 (stereo not drawn) [Indapamide] | (CR)
14 | CC(C)NCC(O)c1ccc(O)c(O)c1 (stereo not drawn) [Isoproterenol] | (SR)
15 | COC(=O)C1=C(C)NC(C)=C(C(=O)OC(C)C)C1c1cccc2nonc12 (stereo not drawn) [Isradipine] | (PR)
16 | CCC(C)n1ncn(-c2ccc(N3CCN(c4ccc(OCC5COC(Cn6cncn6)(c6ccc(Cl)cc6Cl)O5)cc4)CC3)cc2)c1=O (stereo not drawn) [Itraconazole] | (CR)
17 | COc1cc2c(cc1OC)CC(=O)N(CCCN(C)C[C@H]1Cc3cc(OC)c(OC)cc31)CC2 [Ivabradine] | (CR)
18 | N#Cc1ccnc(N2C(=O)CC[C@H]2C(=O)N(c2cncc(F)c2)[C@H](C(=O)NC2CC(F)(F)C2)c2ccccc2Cl)c1 [Ivosidenib] | (PR)
19 | O=C(c1ccc(F)cc1)C1CCN(CCn2c(=O)[nH]c3ccccc3c2=O)CC1 [Ketanserin] | (PR)
20 | CC(=O)N1CCN(c2ccc(OCC3COC(Cn4ccnc4)(c4ccc(Cl)cc4Cl)O3)cc2)CC1 (stereo not drawn) [Ketoconazole] | (CR)
21 | CCOC(=O)C1=C(C)NC(C)=C(C(=O)OCC)C1c1ccccc1/C=C/C(=O)OC(C)(C)C [Lacidipine] | (PR)

Row | Structure (SMILES) | Risk (Torsade de Pointes)
22 | Cc1c(OCC(F)(F)F)ccnc1C[S+]([O-])c1nc2ccccc2[nH]1 (stereo not drawn) [Lansoprazole] | (CR)
23 | CS(=O)(=O)CCNCc1ccc(-c2ccc3ncnc(Nc4ccc(OCc5cccc(F)c5)c(Cl)c4)c3c2)o1 [Lapatinib] | (PR)
24 | C=C[C@]1(C)C[C@@H](OC(=O)CS[C@@H]2CC[C@@H](N)C[C@H]2O)[C@]2(C)[C@H](C)CC[C@]3(CCC(=O)[C@H]32)[C@@H](C)[C@@H]1O [Lefamulin] | (PR)
25 | CC[C@@H](C(N)=O)N1CCCC1=O [Levetiracetam] | (PR)
26 | COc1ccc2c(c1)N(C[C@H](C)CN(C)C)c1ccccc1S2 [Levomepromazine] | (KR)
27 | CCC(=O)C(C[C@@H](C)N(C)C)(c1ccccc1)c1ccccc1 [Levomethadone] | (PR)
28 | CC[C@H](O)C(C[C@H](C)N(C)C)(c1ccccc1)c1ccccc1 [Levomethadyl] | (KR)
29 | CN[C@H](C)Cc1ccccc1 [Levomethamphetamine] | (SR)
30 | CCN1CCC[C@H]1CNC(=O)c1cc(S(N)(=O)=O)ccc1OC [Levosulpiride] | (KR)
31 | CC(=O)NC[C@H]1CN(c2ccc(N3CCOCC3)c(F)c2)C(=O)O1 [Linezolid] | (PR)
32 | C[C@@H](Cc1ccccc1)NC(=O)[C@@H](N)CCCCN [Lisdexamfetamine] | (SR)
33 | [Li] [Lithium] | (PR)
34 | CC(Oc1c(Cl)cccc1Cl)C1=NCCN1 (stereo not drawn) [Lofexidine] | (PR)
35 | O=C1[C@@H]2[C@H]3CC[C@H](C3)[C@@H]2C(=O)N1C[C@@H]1CCCC[C@H]1CN1CCN(c2nsc3ccccc23)CC1 [Lurasidone] | (PR)
36 | CNCCCC12CCC(c3ccccc31)c1ccccc12 [Maprotiline] | (PR)
37 | CN1CCCCC1CCN1c2ccccc2Sc2ccc([S+](C)[O-])cc21 (stereo not drawn) [Mesoridazine] | (KR)
38 | CCC(=O)C(CC(C)N(C)C)(c1ccccc1)c1ccccc1 (stereo not drawn) [Methadone] | (KR)
39 | CN[C@@H](C)Cc1ccccc1 [Methamphetamine] | (SR)
40 | CCN(CC)CCNC(=O)c1cc(Cl)c(N)cc1OC [Metoclopramide] | (CR)
41 | Cc1ccccc1N1C(=O)c2cc(S(N)(=O)=O)c(Cl)cc2NC1C (stereo not drawn) [Metolazone] | (CR)
42 | CN1CCN2c3ccccc3Cc3ccccc3C2C1 (stereo not drawn) [Mianserin] | (PR)

Row | Structure (SMILES) | Risk (Torsade de Pointes)
43 | COc1ccc(OC)c(C(O)CNC(=O)CN)c1 (stereo not drawn) [Midodrine] | (SR)
44 | CO[C@@H]1[C@H](N(C)C(=O)c2ccccc2)C[C@H]2O[C@]1(C)n1c3ccccc3c3c4c(c5c6ccccc6n2c5c31)C(=O)NC4 [Midostaurin] | (PR)
45 | Nc1nc(CC(=O)Nc2ccc(CCNC[C@H](O)c3ccccc3)cc2)cs1 [Mirabegron] | (PR)
46 | Cc1c(O)cccc1C(=O)N[C@@H](CSc1ccccc1)[C@H](O)CN1C[C@H]2CCCC[C@H]2C[C@H]1C(=O)NC(C)(C)C [Nelfinavir] | (CR)
47 | CCn1cc(C(=O)O)c(=O)c2cc(F)c(N3CCNCC3)cc21 [Norfloxacin] | (PR)
48 | CNCCC=C1c2ccccc2CCc2ccccc21 [Nortriptyline] | (PR)
49 | COc1ccsc1CNCC[C@@]1(c2ccccn2)CCOC2(CCCC2)C1 [Oliceridine] | (PR)
50 | COc1ccc(CC(C)(C)NC[C@H](O)c2cc(O)cc3c2OCC(=O)N3)cc1 [Olodaterol] | (SR)
51 | COc1ccc2[nH]c([S+]([O-])Cc3ncc(C)c(OC)c3C)nc2c1 (stereo not drawn) [Omeprazole] | (CR)
52 | Cc1nccn1CC1CCc2c(c3ccccc3n2C)C1=O (stereo not drawn) [Ondansetron] | (KR)
53 | O=C1[O][Pt]2([NH][C@@H]3CCCC[C@H]3[NH]2)[O]C1=O [Oxaliplatin] | (KR)
54 | Cc1cc(C(C)(C)C)c(O)c(C)c1CC1=NCCN1 [Oxymetazoline] | (SR)
55 | CC(C)Oc1ccc(-c2nc(-c3cccc4c3CC[C@@H]4NCCO)no2)cc1C#N [Ozanimod] | (PR)
56 | Cc1nc2n(c(=O)c1CCN1CCC(c3noc4cc(F)ccc34)CC1)CCCC2O (stereo not drawn) [Paliperidone] | (PR)
57 | O=C1c2cccc3c2[C@H](CCC3)CN1[C@@H]1CN2CCC1CC2 [Palonosetron] | (PR)
58 | Cc1[nH]c2ccccc2c1CCNCc1ccc(/C=C/C(=O)NO)cc1 [Panobinostat] | (PR)
59 | COc1ccnc(C[S+]([O-])c2nc3ccc(OC(F)F)cc3[nH]2)c1OC (stereo not drawn) [Pantoprazole] | (CR)
60 | COc1ccc(Cc2nccc3cc(OC)c(OC)cc23)cc1OC [Papaverine] | (KR)
61 | Fc1ccc([C@@H]2CCNC[C@H]2COc2ccc3c(c2)OCO3)cc1 [Paroxetine] | (CR)
62 | Cc1ccc(Nc2nccc(N(C)c3ccc4c(C)n(C)nc4c3)n2)cc1S(N)(=O)=O [Pazopanib] | (PR)
63 | N=C(N)c1ccc(OCCCCCOc2ccc(C(=N)N)cc2)cc1 [Pentamidine] | (KR)

Row | Structure (SMILES) | Risk (Torsade de Pointes)
64 | FC(F)(F)C(F)(F)C(F)(F)F [Perflutren] | (PR)
65 | CC(C)(N)Cc1ccccc1 [Phentermine] | (SR)
66 | CNC[C@H](O)c1cccc(O)c1 [Phenylephrine] | (SR)
67 | CC(N)C(O)c1ccccc1 (stereo not drawn) [Phenylpropanolamine] | (SR)
68 | Cc1cccc(C)c1NC(=O)CC12CCCN1CCC2 [Pilsicainide] | (PR)
69 | CC(C)COc1ccc(CNC(=O)N(Cc2ccc(F)cc2)C2CCN(C)CC2)cc1 [Pimavanserin] | (PR)
70 | O=c1[nH]c2ccccc2n1C1CCN(CCCC(c2ccc(F)cc2)c2ccc(F)cc2)CC1 [Pimozide] | (KR)
71 | NC(=O)C1(N2CCCCC2)CCN(CCCC(=O)c2ccc(F)cc2)CC1 [Pipamperone] | (PR)
72 | Clc1ccc(CCCOCCCN2CCCCC2)cc1 [Pitolisant] | (PR)
73 | CCC/N=C1\S/C(=C\c2ccc(OC[C@H](O)CO)c(Cl)c2)C(=O)N1c1ccccc1C [Ponesimod] | (PR)
74 | CC[C@@H]([C@H](C)O)n1ncn(-c2ccc(N3CCN(c4ccc(OC[C@@H]5CO[C@@](Cn6cncn6)(c6ccc(F)cc6F)C5)cc4)CC3)cc2)c1=O [Posaconazole] | (CR)
75 | O=[N+]([O-])c1cn2c(n1)OC[C@@H](OCc1ccc(OC(F)(F)F)cc1)C2 [Pretomanid] | (PR)
76 | COc1cc(NC(C)CCCN)c2ncccc2c1 (stereo not drawn) [Primaquine] | (PR)
77 | CC(CN1c2ccccc2Sc2ccccc21)N(C)C (stereo not drawn) [Promethazine] | (PR)
78 | CN(C)CCCN1c2ccccc2Sc2cccnc21 [Prothipendyl] | (PR)
79 | OCCOCCN1CCN(C2=Nc3ccccc3Sc3ccccc32)CC1 [Quetiapine] | (CR)
80 | C=C[C@H]1C[N@@]2CC[C@H]1C[C@@H]2[C@@H](O)c1ccnc2ccc(OC)cc12 [Quinidine] | (KR)
81 | C=C[C@H]1C[N@@]2CC[C@H]1C[C@H]2[C@H](O)c1ccnc2ccc(OC)cc12 [Quinine] | (CR)
